# Results published in ChEMBL document CHEMBL2331210, “New 2-benzylsulfanyl-nicotinic acid based 1,3,4-oxadiazoles: their synthesis and biological evaluation” (2013).
# Legend:
# SR = assay: Antitumor activity against human SR cells assessed as cell growth at 0.1 uM; assay type: functional; details: read-out: Activity
# [1] = Antitumor activity against human Hs 578T cells assessed as cell growth at 0.1 uM; assay type: functional; details: read-out: Activity
# CAKI-1 = assay: Antitumor activity against human CAKI-1 cells assessed as cell growth at 0.1 uM; assay type: functional; details: read-out: Activity
# SNB-19 = assay: Antitumor activity against human SNB19 cells assessed as cell growth at 0.1 uM; assay type: functional; details: read-out: Activity
# CCRF-CEM = assay: Antitumor activity against human CCRF-CEM cells assessed as cell growth at 0.1 uM; assay type: functional; details: read-out: Activity
# [2] = Antitumor activity against human HCC2998 cells assessed as cell growth at 0.1 uM; assay type: functional; details: HCC 2998, read-out: Activity
# OVCAR-5 = assay: Antitumor activity against human OVCAR5 cells assessed as cell growth at 0.1 uM; assay type: functional; details: read-out: Activity
# SK-MEL-2 = assay: cells; details: Homo sapiens, SK-MEL-2, read-out: Activity
# Description: Antitumor activity against human SK-MEL-2 cells assessed as cell growth at 0.1 uM
# OVCAR-8 = assay: Antitumor activity against human OVCAR8 cells assessed as cell growth at 0.1 uM; assay type: functional; details: read-out: Activity
# HOP-92 = assay: Antitumor activity against human HOP92 cells assessed as cell growth at 0.1 uM; assay type: functional; details: read-out: Activity
# MDA-MB-468 = assay: Antitumor activity against human MDA-MB-468 cells assessed as cell growth at 0.1 uM; assay type: functional; details: read-out: Activity
# HOP-62 = assay: Antitumor activity against human HOP62 cells assessed as cell growth at 0.1 uM; assay type: functional; details: read-out: Activity
# [3] = Antitumor activity against human EKVX cells assessed as cell growth at 0.1 uM; assay type: functional; details: read-out: Activity
# HCT-15 = assay: Antitumor activity against human HCT15 cells assessed as cell growth at 0.1 uM; assay type: functional; details: read-out: Activity
# SNB-75 = assay: Antitumor activity against human SNB75 cells assessed as cell growth at 0.1 uM; assay type: functional; details: read-out: Activity
# U-251 = assay: Antitumor activity against human U251 cells assessed as cell growth at 0.1 uM; assay type: functional; details: read-out: Activity
# BT-549 = assay: Antitumor activity against human BT549 cells assessed as cell growth at 0.1 uM; assay type: functional; details: read-out: Activity
# SK-OV-3 = assay: Antitumor activity against human SKOV3 cells assessed as cell growth at 0.1 uM; assay type: functional; details: read-out: Activity
# IGROV-1 = assay: Antitumor activity against human IGROV1 cells assessed as cell growth at 0.1 uM; assay type: functional; details: read-out: Activity
# SF-268 = assay: Antitumor activity against human SF268 cells assessed as cell growth at 0.1 uM; assay type: functional; details: read-out: Activity
# NCI-H23 = assay: Antitumor activity against human NCI-H23 cells assessed as cell growth at 0.1 uM; assay type: functional; details: read-out: Activity
# NCI-H460 = assay: Antitumor activity against human NCI-H460 cells assessed as cell growth at 0.1 uM; assay type: functional; details: read-out: Activity
# OVCAR-3 = assay: Antitumor activity against human OVCAR3 cells assessed as cell growth at 0.1 uM; assay type: functional; details: read-out: Activity
# K562 = assay: Antitumor activity against human K562 cells assessed as cell growth at 0.1 uM; assay type: functional; details: read-out: Activity
# SK-MEL-5 = assay: Antitumor activity against human SK-MEL-5 cells assessed as cell growth at 0.1 uM; assay type: functional; details: read-out: Activity
# MCF7 = assay: Antitumor activity against human MCF7 cells assessed as cell growth at 0.1 uM; assay type: functional; details: read-out: Activity
# Staphylococcus aureus = assay: Antimicrobial activity against Staphylococcus aureus MTCC 96 assessed as growth inhibition measured after overnight incubation by broth dilution method; assay type: functional
# SN12C = assay: Antitumor activity against human SN12C cells assessed as cell growth at 0.1 uM; assay type: functional; details: read-out: Activity
# Aspergillus clavatus = assay: Antimicrobial activity against Aspergillus clavatus MTCC 1323 assessed as growth inhibition measured after overnight incubation by broth dilution method; assay type: functional
# MOLT-4 = assay: Antitumor activity against human MOLT4 cells assessed as cell growth at 0.1 uM; assay type: functional; details: read-out: Activity
# SF-295 = assay: Antitumor activity against human SF295 cells assessed as cell growth at 0.1 uM; assay type: functional; details: read-out: Activity
# RPMI-8226 = assay: Antitumor activity against human RPMI8226 cells assessed as cell growth at 0.1 uM; assay type: functional; details: read-out: Activity
# T47D = assay: Antitumor activity against human T47D cells assessed as cell growth at 0.1 uM; assay type: functional; details: read-out: Activity
# Escherichia coli = assay: Antimicrobial activity against Escherichia coli MTCC 443 assessed as growth inhibition measured after overnight incubation by broth dilution method; assay type: functional
# DU-145 = assay: Antitumor activity against human DU145 cells assessed as cell growth at 0.1 uM; assay type: functional; details: read-out: Activity
# PC-3 = assay: Antitumor activity against human PC3 cells assessed as cell growth at 0.1 uM; assay type: functional; details: read-out: Activity
# UO-31 = assay: Antitumor activity against human UO31 cells assessed as cell growth at 0.1 uM; assay type: functional; details: read-out: Activity
# LOX IMVI = assay: Antitumor activity against human LOXIMVI cells assessed as cell growth at 0.1 uM; assay type: functional; details: read-out: Activity
# MDA-MB-435 = assay: Antitumor activity against human MDA-MB-435 cells assessed as cell growth at 0.1 uM; assay type: functional; details: read-out: Activity
# TK-10 = assay: Antitumor activity against human TK10 cells assessed as cell growth at 0.1 uM; assay type: functional; details: read-out: Activity
# A549 = assay: Antitumor activity against human A549/ATCC cells assessed as cell growth at 0.1 uM; assay type: functional; details: read-out: Activity
# Aspergillus niger = assay: Antimicrobial activity against Aspergillus niger MTCC 282 assessed as growth inhibition measured after overnight incubation by broth dilution method; assay type: functional
# NCI/ADR-RES = assay: Antitumor activity against human NCI/ADR-RES cells assessed as cell growth at 0.1 uM; assay type: functional; details: read-out: Activity
# Streptococcus pyogenes = assay: Antimicrobial activity against Streptococcus pyogenes MTCC 442 assessed as growth inhibition measured after overnight incubation by broth dilution method; assay type: functional
# ACHN = assay: Antitumor activity against human ACHN cells assessed as cell growth at 0.1 uM; assay type: functional; details: read-out: Activity
# Malme-3M = assay: Antitumor activity against human MALME-3M cells assessed as cell growth at 0.1 uM; assay type: functional; details: read-out: Activity
# A498 = assay: Antitumor activity against human A498 cells assessed as cell growth at 0.1 uM; assay type: functional; details: read-out: Activity
# Candida albicans = assay: Antimicrobial activity against Candida albicans MTCC 227 assessed as growth inhibition measured after overnight incubation by broth dilution method; assay type: functional
# HL-60 = assay: Antitumor activity against human HL60(TB) cells assessed as cell growth at 0.1 uM; assay type: functional; details: read-out: Activity
# SK-MEL-28 = assay: Antitumor activity against human SK-MEL-28 cells assessed as cell growth at 0.1 uM; assay type: functional; details: read-out: Activity
# MDA-MB-231 = assay: Antitumor activity against human MDA-MB-231/ATCC cells assessed as cell growth at 0.1 uM; assay type: functional; details: read-out: Activity
# M14 = assay: Antitumor activity against human M14 cells assessed as cell growth at 0.1 uM; assay type: functional; details: read-out: Activity
# HCT-116 = assay: Antitumor activity against human HCT116 cells assessed as cell growth at 0.1 uM; assay type: functional; details: read-out: Activity
# RXF 393 = assay: Antitumor activity against human RXF393 cells assessed as cell growth at 0.1 uM; assay type: functional; details: read-out: Activity
# NCI-H522 = assay: Antitumor activity against human NCI-H522 cells assessed as cell growth at 0.1 uM; assay type: functional; details: read-out: Activity
# SW-620 = assay: Antitumor activity against human SW620 cells assessed as cell growth at 0.1 uM; assay type: functional; details: read-out: Activity
# HT-29 = assay: Antitumor activity against human HT-29 cells assessed as cell growth at 0.1 uM; assay type: functional; details: read-out: Activity
# SF-539 = assay: Antitumor activity against human SF539 cells assessed as cell growth at 0.1 uM; assay type: functional; details: read-out: Activity
# Pseudomonas aeruginosa = assay: Antimicrobial activity against Pseudomonas aeruginosa MTCC 2488 assessed as growth inhibition measured after overnight incubation by broth dilution method; assay type: functional
# NCI-H226 = assay: Antitumor activity against human NCI-H226 cells assessed as cell growth at 0.1 uM; assay type: functional; details: read-out: Activity
# OVCAR-4 = assay: Antitumor activity against human OVCAR4 cells assessed as cell growth at 0.1 uM; assay type: functional; details: read-out: Activity
# [4] = test system: Mycobacterium tuberculosis; assay: Antitubercular activity against Mycobacterium tuberculosis H37Rv assessed as growth inhibition after 12 to 28 days by L.J. agar MIC method; assay type: functional
# UACC-62 = assay: Antitumor activity against human UACC62 cells assessed as cell growth at 0.1 uM; assay type: functional; details: read-out: Activity
# UACC-257 = assay: Antitumor activity against human UACC257 cells assessed as cell growth at 0.1 uM; assay type: functional; details: read-out: Activity
smiles,measurement,setting,value
Cc1ccc2sc(-c3ccc(NC(=O)CSc4nnc(-c5cccnc5SCc5ccccc5)o4)cc3)nc2c1,growth at 0.1 µM,SR,82.6%
same,growth at 0.1 µM,[1],92.3%
same,growth at 0.1 µM,CAKI-1,87.8%
same,growth at 0.1 µM,SNB-19,104%
same,growth at 0.1 µM,CCRF-CEM,93.1%
same,growth at 0.1 µM,[2],106%
same,growth at 0.1 µM,OVCAR-5,107%
same,growth at 0.1 µM,SK-MEL-2,89.8%
same,growth at 0.1 µM,OVCAR-8,94.3%
same,growth at 0.1 µM,HOP-92,93.4%
same,growth at 0.1 µM,MDA-MB-468,92.2%
same,growth at 0.1 µM,HOP-62,96.8%
same,growth at 0.1 µM,[3],89.9%
same,growth at 0.1 µM,HCT-15,111%
same,growth at 0.1 µM,SNB-75,95.6%
same,growth at 0.1 µM,U-251,106%
same,growth at 0.1 µM,BT-549,91.6%
same,growth at 0.1 µM,SK-OV-3,105%
same,growth at 0.1 µM,IGROV-1,99.7%
same,growth at 0.1 µM,SF-268,91.6%
same,growth at 0.1 µM,NCI-H23,96.6%
same,growth at 0.1 µM,NCI-H460,101%
same,growth at 0.1 µM,OVCAR-3,100%
same,growth at 0.1 µM,K562,101%
same,growth at 0.1 µM,SK-MEL-5,89.9%
same,growth at 0.1 µM,MCF7,81.2%
same,MIC,Staphylococcus aureus,100 µg/mL
same,growth at 0.1 µM,SN12C,102%
same,MIC,Aspergillus clavatus,500 µg/mL
same,growth at 0.1 µM,MOLT-4,92.2%
same,growth at 0.1 µM,SF-295,107%
same,growth at 0.1 µM,RPMI-8226,92.2%
same,growth at 0.1 µM,T47D,87.8%
same,MIC,Escherichia coli,100 µg/mL
same,growth at 0.1 µM,DU-145,87.5%
same,growth at 0.1 µM,PC-3,91.8%
same,growth at 0.1 µM,UO-31,59.3%
same,growth at 0.1 µM,LOX IMVI,93.6%
same,growth at 0.1 µM,MDA-MB-435,107%
same,growth at 0.1 µM,TK-10,118%
same,growth at 0.1 µM,A549,104%
same,MIC,Aspergillus niger,1000 µg/mL
same,growth at 0.1 µM,NCI/ADR-RES,99.5%
same,MIC,Streptococcus pyogenes,25 µg/mL
same,growth at 0.1 µM,ACHN,90.8%
same,growth at 0.1 µM,Malme-3M,99.3%
same,growth at 0.1 µM,A498,105%
same,MIC,Candida albicans,250 µg/mL
same,growth at 0.1 µM,HL-60,97.3%
same,growth at 0.1 µM,SK-MEL-28,114%
same,growth at 0.1 µM,MDA-MB-231,71.4%
same,growth at 0.1 µM,M14,97.4%
same,growth at 0.1 µM,HCT-116,95.4%
same,growth at 0.1 µM,RXF 393,114%
same,growth at 0.1 µM,NCI-H522,87.9%
same,growth at 0.1 µM,SW-620,104%
same,growth at 0.1 µM,HT-29,100%
same,growth at 0.1 µM,SF-539,92.9%
same,MIC,Pseudomonas aeruginosa,62.5 µg/mL
same,growth at 0.1 µM,NCI-H226,80.8%
same,growth at 0.1 µM,OVCAR-4,98.8%
same,growth inhibition (GI),[4],99%
same,MIC,"[4]; Mycobacterium tuberculosis, H37Rv",62.5 µg/mL
same,growth at 0.1 µM,UACC-62,104%
same,growth at 0.1 µM,UACC-257,113%
